Results as given in the NIST ThermoML archive (doi:10.1021/je060485s).

Assay: xn = mol fraction of the nth substance listed
Settings: for surface tension liquid-gas: Pendant drop shape; for mass density: 101 kPa, Liquid

CCCOC(C)=O [propyl ethanoate] + Cc1ccc(C)cc1
Settings	mass density [kg/m3]	surface tension liquid-gas [mN/m]
298.15 K, x1 = 0.1	859.6	27.56
298.15 K, x1 = 0.1995	862.22	27.04
298.15 K, x1 = 0.2981	864.8	26.54
298.15 K, x1 = 0.3986	867.38	26.05
298.15 K, x1 = 0.4993	869.95	25.61
298.15 K, x1 = 0.6002	872.51	25.23
298.15 K, x1 = 0.6991	875	24.89
298.15 K, x1 = 0.7993	877.52	24.56
298.15 K, x1 = 0.8999	880.05	24.23
298.15 K, x1 = 1	882.54	23.91
303.15 K, x1 = 0.0994	855.13	26.98
303.15 K, x1 = 0.1992	857.64	26.48
303.15 K, x1 = 0.2992	860.13	25.99
303.15 K, x1 = 0.3991	862.58	25.52
303.15 K, x1 = 0.5009	865.05	25.1
303.15 K, x1 = 0.5998	867.44	24.76
303.15 K, x1 = 0.6999	869.84	24.43
303.15 K, x1 = 0.8009	872.26	24.1
303.15 K, x1 = 0.8997	874.63	23.78
303.15 K, x1 = 1	876.99	23.46
308.15 K, x1 = 0.1001	850.7	26.61
308.15 K, x1 = 0.1999	853.09	26.09
308.15 K, x1 = 0.2992	855.43	25.57
308.15 K, x1 = 0.4001	857.77	25.06
308.15 K, x1 = 0.4996	860.06	24.62
308.15 K, x1 = 0.6	862.35	24.23
308.15 K, x1 = 0.6996	864.61	23.87
308.15 K, x1 = 0.8003	866.88	23.51
308.15 K, x1 = 0.9002	869.14	23.15
308.15 K, x1 = 1	871.35	22.79

CCCOC(C)=O [propyl ethanoate] + Cc1cccc(C)c1
x1 = 1
Settings	mass density [kg/m3]	surface tension liquid-gas [mN/m]
298.15 K	882.54	23.91
303.15 K	876.99	23.46
308.15 K	871.35	22.79

CCCOC(C)=O [propyl ethanoate] + Cc1ccccc1C
Settings	mass density [kg/m3]	surface tension liquid-gas [mN/m]
298.15 K, x1 = 0.0998	876.04	28.94
298.15 K, x1 = 0.1995	876.96	28.14
298.15 K, x1 = 0.2996	877.83	27.47
298.15 K, x1 = 0.4002	878.67	26.85
298.15 K, x1 = 0.5001	879.45	26.27
298.15 K, x1 = 0.6004	880.18	25.71
298.15 K, x1 = 0.7002	880.85	25.18
298.15 K, x1 = 0.7999	881.46	24.69
298.15 K, x1 = 0.9	882.03	24.25
298.15 K, x1 = 1	882.54	23.91
303.15 K, x1 = 0.0999	–	28.41
303.15 K, x1 = 0.1	871.68	–
303.15 K, x1 = 0.1997	872.48	27.6
303.15 K, x1 = 0.2992	873.22	26.92
303.15 K, x1 = 0.3998	873.93	26.3
303.15 K, x1 = 0.4993	874.57	25.74
303.15 K, x1 = 0.6002	875.17	25.2
303.15 K, x1 = 0.6994	875.7	24.7
303.15 K, x1 = 0.8002	876.19	24.24
303.15 K, x1 = 0.902	876.63	23.81
303.15 K, x1 = 1	876.99	23.46
308.15 K, x1 = 0.0999	867.33	27.8
308.15 K, x1 = 0.1999	867.99	27.05
308.15 K, x1 = 0.3001	868.59	26.35
308.15 K, x1 = 0.3989	869.15	25.73
308.15 K, x1 = 0.5002	869.66	25.14
308.15 K, x1 = 0.6008	870.11	24.6
308.15 K, x1 = 0.6998	870.5	24.1
308.15 K, x1 = 0.8007	870.84	23.63
308.15 K, x1 = 0.9	871.12	23.2
308.15 K, x1 = 1	871.35	22.79
